Measured values reported in patent US11236055B2 (Venenum Biodesign, LLC, priority 2016, dated 2022).

Key:
human TGR5 receptor = target: T1, human TGR5 receptor (Homo sapiens, UniProt Q8TDU6); assay: Human TGR5 cAMP production assay; assay type: cell-based; details: human TGR5, luminescent cAMP assay; coded A-D; read-out: Human TGR5 Lum. cAMP Activity (EC50)
T1 construct: host or cells: CHO-K1 (hTGR5-CHO cells)
T1 sequence (Q8TDU6 1-330): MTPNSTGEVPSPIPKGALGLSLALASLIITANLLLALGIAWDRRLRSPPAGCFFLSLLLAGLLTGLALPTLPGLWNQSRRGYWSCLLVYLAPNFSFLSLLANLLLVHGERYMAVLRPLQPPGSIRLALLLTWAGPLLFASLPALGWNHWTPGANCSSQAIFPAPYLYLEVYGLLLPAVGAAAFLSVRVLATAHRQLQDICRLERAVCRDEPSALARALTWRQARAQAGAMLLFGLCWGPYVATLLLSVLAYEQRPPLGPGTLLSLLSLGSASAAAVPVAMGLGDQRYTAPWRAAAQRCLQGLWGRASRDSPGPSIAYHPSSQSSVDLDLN
How it was run: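 CHO-K1 cells stably expressing human TGR5, with IBMX and cAMP antibody, were exposed to half-log serially diluted compound for 1 h at room temperature. cAMP measured by enzyme-fragment complementation luminescence (XS+ kit) after overnight incubation; EC50 values reported.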

mouse TGR5 receptor = target: T2, mouse TGR5 receptor (Mus musculus, UniProt Q80SS6); assay: Mouse TGR5 cAMP production assay (luminescent, DiscoveRx cAMP XS+); assay type: cell-based; details: HEK293-EBNA cells overexpressing mouse TGR5, luminescent cAMP XS+; coded A-D; read-out: Mouse TGR5 Lum. cAMP Activity (EC50)
T2 construct: expressed in transfected cells; host or cells: HEK293-EBNA (293 c18, ATCC CRL10852), Hygromycin B selection
T2 sequence (Q80SS6 1-329): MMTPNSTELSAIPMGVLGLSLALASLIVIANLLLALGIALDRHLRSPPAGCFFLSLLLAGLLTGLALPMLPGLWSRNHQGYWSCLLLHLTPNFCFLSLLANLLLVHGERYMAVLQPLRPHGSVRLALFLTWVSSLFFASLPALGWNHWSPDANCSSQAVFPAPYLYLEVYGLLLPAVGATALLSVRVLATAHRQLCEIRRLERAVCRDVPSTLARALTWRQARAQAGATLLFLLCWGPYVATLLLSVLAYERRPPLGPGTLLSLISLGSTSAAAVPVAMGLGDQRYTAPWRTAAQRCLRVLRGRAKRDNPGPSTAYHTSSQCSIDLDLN
Source text: Mouse TGR5 cAMP Production Assay
We evaluated compounds of the present invention for their ability to induce cAMP production in HEK-EBNA cells overexpressing the mouse TGR5 receptor. Human embryonic kidney cells (HEK293-EBNA) stably expressing mouse TGR5 receptor were established using the following procedure. Specifically, a commercially-obtained gene encoding mouse TGR5 (accession number BC116914) from Thermo Scientific (Waltham, Mass.) was cloned into an episomal expression vector. The resulting expression plasmid was then transfected into 293 c18 (ATCC® CRL10852™) cells, which express the Epstein-Barr virus nuclear antigen EBNA1 and can support the replication of episomal vectors. Selection for the plasmid was maintained with Hygromycin B. Cells were cultured and maintained in DMEM (Sigma; cat #6429) supplemented with 10% Fetal Bovine Serum, 1% penicillin/streptomycin, 2 mM L-alanine L-glutamine (GlutaMax), and 250 μg/mL Hygromycin.
Two cAMP production assays were developed.
1. Luminescent cAMP Production Assay
In this first cAMP production assay, the cAMP production was measured using DiscoveRx's cAMP XS+ kit following the manufacturer's recommended protocol.
Briefly, HEK293-EBNA cells stably overexpressing mouse TGR5 were harvested using non-enzymatic cell dissociation buffer (Sigma-Aldrich, St. Louis, Mo.), spun down, then resuspended in serum-free DMEM with 500 μM IBMX at a density of 1.25×10^6 cells/mL. 500 μL of cAMP antibody solution was added to […] of cell suspension and incubated at room temperature for 20 min.
Test compounds were serially diluted (half-log dilutions) in DMSO and then further diluted 1:50 in PBS, 10 mM HEPES buffer. 2 μL of serially diluted compound was added to a 384-well low volume plate (Greiner cat #784075) and centrifuged briefly. 2 μL of the cell/cAMP antibody mixture was then added to each compound-containing well and allowed to incubate at room temperature for one (1) hour. Following incubation, the XS+ kits' ED/Lysis/CL Substrate Working Solution was prepared following the manufacturer's recommended protocol and 4 μL was added to each well of the plate. The plate was then incubated for one (1) hour at room temperature. Following incubation, 4 μL of (Enzyme Acceptor) EA reagent was added to the plate and allowed to incubate overnight at room temperature. Luminescent signal was then detected using the Viewlux instrument (Perkin-Elmer, Waltham, Mass.).
In Table 33, EC50 values for both human and mouse cells were determined according to the TGR5 cAMP assays described above.

| Compound | EC50 (human TGR5 receptor) [nM] | EC50 (mouse TGR5 receptor) [nM] |
| --- | --- | --- |
| COc1cnccc1-c1cccc(C(C)(C)NS(=O)(=O)c2cccc(Br)c2)c1 [Compound 2AT] | 100 to 999 | 1000 to 30000 |
| COc1cnccc1-c1cccc(C(C)(C)NS(=O)(=O)c2ccccc2Cl)c1 [Compound 2AX] | 100 to 999 | 100 to 999 |
| O=[N+]([O-])c1ccccc1S(=O)(=O)NCc1cccc(-c2ccncc2)c1 [Compound 2AO] | 1000 to 30000 | 1000 to 30000 |
| Cc1ccc(C(C)(C)NS(=O)(=O)c2cccc(C(F)(F)F)c2)cc1-c1ccncc1 [Compound 1BW] | 1000 to 30000 | > 30000 |
| CCOc1cnccc1-c1cccc(C(C)(C)NS(=O)(=O)c2cccc(C(F)(F)F)c2)c1 [Compound 8AB, N-(2-(3-(3-ethoxypyridin-4-yl)phenyl)propan-2-yl)-3-(trifluoromethyl)benzenesulfonamide] | < 100 | 100 to 999 |
| COc1cnccc1-c1cccc(C(C)(C)NS(=O)(=O)c2cc(C(F)(F)F)ccc2OC)c1 [Compound 2AW] | 1000 to 30000 | 1000 to 30000 |
| C[C@H](NS(=O)(=O)c1ccccc1C(F)(F)F)c1cccc(-c2ccncc2Cl)c1 [Compound 2BT] | < 100 | 100 to 999 |
| COc1cnccc1-c1cccc(C(C)(C)NS(=O)(=O)c2cccc(Cl)c2)c1 [Compound 2AY] | 100 to 999 | 100 to 999 |
| COc1cccc(S(=O)(=O)NCc2cccc(-c3ccncc3)c2)c1 [Compound 2AL] | 1000 to 30000 | > 30000 |
| CC(C)(NS(=O)(=O)c1cccc(C(F)(F)F)c1)c1cccc(-c2ccnc3ccccc23)c1 [Compound 1AJ] | 1000 to 30000 | 1000 to 30000 |
| COc1cnccc1-c1cccc(C(C)(C)NS(=O)(=O)c2cccc(C(F)(F)F)c2)c1 [Compound 1AI] | < 100 | 100 to 999 |
| COc1cnccc1-c1cccc(C(C)(C)NS(=O)(=O)c2cc(Br)cc(C(F)(F)F)c2)c1 [Compound 2BB] | 100 to 999 | 100 to 999 |
| COc1cnccc1-c1ccnc(CNS(=O)(=O)c2cccc(C(F)(F)F)c2)c1 [Compound 1BR] | 1000 to 30000 | 1000 to 30000 |
| O=[N+]([O-])c1cccc(S(=O)(=O)NCc2cccc(-c3ccncc3)c2)c1 [Compound 2AN] | 1000 to 30000 | 1000 to 30000 |
| O=S(=O)(NCc1cccc(-c2ccncc2)c1)c1ccccc1F [Compound 2AS] | 1000 to 30000 | > 30000 |
| CC(C)(NS(=O)(=O)c1cccc(C(F)(F)F)c1)c1cccc(-c2ccncc2F)c1 [Compound 1AE] | < 100 | 1000 to 30000 |
| Cc1cc(-c2cccc(C(C)(C)NS(=O)(=O)c3cccc(C(F)(F)F)c3)c2)ccn1 [Compound 1AK] | 100 to 999 | 1000 to 30000 |
| Cc1ccccc1S(=O)(=O)NCc1cccc(-c2ccncc2)c1 [Compound 2AP] | 1000 to 30000 | > 30000 |
| CC(C)(NS(=O)(=O)c1ccccc1C(F)(F)F)c1cccc(-c2ccncc2O)c1 [Compound 1BM] | < 100 | 100 to 999 |
| C[C@H](NS(=O)(=O)c1cccc(Br)c1)c1cccc(-c2ccncc2Cl)c1 [Compound 2BR] | 100 to 999 | 1000 to 30000 |
| CC(C)(NS(=O)(=O)c1cccc(C(F)(F)F)c1)c1cccc(-c2ccncc2O)c1 [Compound 1AN] | 100 to 999 | 1000 to 30000 |
| CC(C)(NS(=O)(=O)c1cccc(C(F)(F)F)c1)c1cccc(-c2ccnc(Cl)c2)c1 [Compound 1AG] | 100 to 999 | 1000 to 30000 |
| CC(C)(NS(=O)(=O)c1cccc(C(F)(F)F)c1)c1cccc(-c2ccnc(C(F)(F)F)c2)c1 [Compound 1AH] | 1000 to 30000 | > 30000 |
| COc1cnccc1-c1cccc(C2(NS(=O)(=O)c3cccc(C(F)(F)F)c3)CC2)c1 [Compound 1BN] | 100 to 999 | 100 to 999 |
| O=S(=O)(NCc1cccc(-c2ccncc2)c1)c1ccccc1Cl [Compound 2AR] | 1000 to 30000 | > 30000 |
| COc1cnccc1-c1cccc([C@H](C)NS(=O)(=O)c2cccc(Br)c2)c1 [Compound 2BO] | 100 to 999 | 1000 to 30000 |

Other lines, results leading:

| EC50 (human TGR5 receptor) [nM] | EC50 (mouse TGR5 receptor) [nM] | Compound |
| --- | --- | --- |
| 1000 to 30000 | 1000 to 30000 | Cc1noc(C)c1-c1cccc(C(C)(C)NS(=O)(=O)c2cccc(C(F)(F)F)c2)c1 [Compound 1AC] |
| 100 to 999 | 100 to 999 | Cc1cnccc1-c1cccc(CNS(=O)(=O)c2cccc(C(F)(F)F)c2)c1 [Compound 1BF] |
| 1000 to 30000 | > 30000 | Cc1noc(C)c1-c1cccc(CNS(=O)(=O)c2cc(C(F)(F)F)ccc2F)c1 [Compound 2AF] |
| 1000 to 30000 | 1000 to 30000 | O=S(=O)(NCc1cccc(-c2ccncc2)c1)c1ccccc1C(F)(F)F [Compound 2AM] |
| 1000 to 30000 | > 30000 | Cc1noc(C)c1-c1cccc(CNS(=O)(=O)c2ccc(Cl)cc2)c1 [Compound 1AB] |
| 1000 to 30000 | 1000 to 30000 | COc1cccc(S(=O)(=O)NCc2cccc(-c3c(C)noc3C)c2)c1 [Compound 2AB] |
| 1000 to 30000 | 1000 to 30000 | Cc1noc(C)c1-c1cccc(CNS(=O)(=O)c2ccccc2C(F)(F)F)c1 [Compound 2AC] |
| 1000 to 30000 | 1000 to 30000 | Cc1noc(C)c1-c1cccc(CNS(=O)(=O)c2cccc(C(F)(F)F)c2)c1 [Compound 1, N-(3-(3,5-dimethylisoxazol-4-yl)benzyl)-3-(trifluoromethyl)benzenesulfonamide] |
| 1000 to 30000 | 1000 to 30000 | Cc1noc(C)c1-c1cccc(CNS(=O)(=O)c2cccc(Cl)c2)c1 [Compound 2AA] |
| 1000 to 30000 | > 30000 | O=S(=O)(NCc1cc(Cl)cc(-c2ccncc2)c1)c1cccc(C(F)(F)F)c1 [Compound 1BV] |
| 1000 to 30000 | 1000 to 30000 | O=S(=O)(NCc1cc(-c2ccncc2Cl)ccc1F)c1cccc(C(F)(F)F)c1 [Compound 1AV] |
| 100 to 999 | 1000 to 30000 | Nc1cnccc1-c1cccc(CNS(=O)(=O)c2cccc(C(F)(F)F)c2)c1 [Compound 1BG] |
| 1000 to 30000 | > 30000 | Cc1cc(-c2cccc(CNS(=O)(=O)c3cccc(C(F)(F)F)c3)c2)ncn1 [Compound 1BI] |
| 1000 to 30000 | > 30000 | Cc1noc(C)c1-c1cccc(CNS(=O)(=O)c2ccc(F)c(C(F)(F)F)c2)c1 [Compound 2AE] |
| 1000 to 30000 | 1000 to 30000 | Cc1cncc(F)c1-c1cccc(C(C)(C)NS(=O)(=O)c2cccc(C(F)(F)F)c2)c1 [Compound 1AO] |
| 100 to 999 | 1000 to 30000 | O=S(=O)(NCc1ccc(F)c(-c2ccncc2)c1)c1cccc(C(F)(F)F)c1 [Compound 1AS] |
| 1000 to 30000 | 1000 to 30000 | O=S(=O)(NCc1cc(-c2ccncc2)ccc1F)c1cccc(C(F)(F)F)c1 [Compound 1AU] |
| 1000 to 30000 | 1000 to 30000 | Cc1cccc(S(=O)(=O)NCc2cccc(-c3c(C)noc3C)c2)c1 [Compound 2, N-(3-(3,5-dimethylisoxazol-4-yl)benzyl)-3-methylbenzenesulfonamide] |
| 100 to 999 | 1000 to 30000 | O=S(=O)(NCc1cccc(-c2ccncc2F)c1)c1cccc(C(F)(F)F)c1 [Compound 1AP] |
